The text below walks through data of ChEMBL document CHEMBL5233247, “Recent advances in DNA gyrase-targeted antimicrobial agents” (Eur J Med Chem, 2020).

Values after ≈ are worked out from the molar mass of the structure shown.

Assay [1] has as its system Mycobacterium tuberculosis. Description: Anti-tubercular activity against Mycobacterium tuberculosis H37Rv strain. Format: functional.
In assay [2] the target is DNA gyrase (Escherichia coli, UniProt P0AES4+P0AES6). Description: Inhibition of Escherichia coli DNA gyrase. Format: protein-complex assay.
Assay [3] deals with T1, DNA gyrase (Staphylococcus aureus, UniProt P0A0K8+P20831). The assay can be described thus: Inhibition of Staphylococcus aureus DNA gyrase assessed as relaxation of pBR322 DNA by supercoiling assay. The assay is classed as protein-complex assay.
In assay [4] the test system is Staphylococcus aureus. Description: Antibacterial activity against methicillin-sensitive Staphylococcus aureus. Format: functional, organism-based.
For assay [5], the system named is Staphylococcus aureus. The assay can be described thus: Antibacterial activity against methicillin-resistant Staphylococcus aureus. Format: functional, organism-based.
A further assay has as its system Bacillus subtilis. Description: Antibacterial activity against Bacillus subtilis DSM 10 by microdilution assay. Format: functional. Background: Dilution methods test growth across graded concentrations, often in twofold steps.
In a further assay the test system is Mycolicibacterium phlei. The assay can be described thus: Antibacterial activity against Mycobacterium phlei DSM 750 by microdilution assay. Format: functional.
In assay [6] the target is T1, DNA gyrase. The assay can be described thus: Inhibition of Staphylococcus aureus DNA gyrase. Format: protein-complex assay.

What is called MIC is the lowest concentration that inhibits growth of the organism. Read a high MIC as a less susceptible organism. For orientation: IC50 means the concentration at which inhibition is half-maximal.

T1 sequence (P0A0K8 whole entry): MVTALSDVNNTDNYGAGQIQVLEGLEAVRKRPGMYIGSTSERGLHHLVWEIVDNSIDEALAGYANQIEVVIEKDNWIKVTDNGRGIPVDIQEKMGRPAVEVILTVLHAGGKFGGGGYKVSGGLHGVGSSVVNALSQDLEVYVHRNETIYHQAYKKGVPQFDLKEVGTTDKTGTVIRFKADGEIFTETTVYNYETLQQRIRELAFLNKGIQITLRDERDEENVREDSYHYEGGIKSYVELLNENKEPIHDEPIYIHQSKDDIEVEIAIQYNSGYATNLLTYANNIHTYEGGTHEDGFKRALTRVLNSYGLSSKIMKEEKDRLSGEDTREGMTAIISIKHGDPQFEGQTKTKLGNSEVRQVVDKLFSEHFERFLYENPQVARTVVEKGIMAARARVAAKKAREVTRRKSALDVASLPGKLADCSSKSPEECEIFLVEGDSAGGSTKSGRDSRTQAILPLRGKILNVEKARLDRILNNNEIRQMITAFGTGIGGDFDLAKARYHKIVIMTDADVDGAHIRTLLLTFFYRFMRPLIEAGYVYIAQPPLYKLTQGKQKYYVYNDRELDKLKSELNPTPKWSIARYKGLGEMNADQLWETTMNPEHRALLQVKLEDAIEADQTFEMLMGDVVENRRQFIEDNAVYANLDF
T1 sequence (P20831 whole entry): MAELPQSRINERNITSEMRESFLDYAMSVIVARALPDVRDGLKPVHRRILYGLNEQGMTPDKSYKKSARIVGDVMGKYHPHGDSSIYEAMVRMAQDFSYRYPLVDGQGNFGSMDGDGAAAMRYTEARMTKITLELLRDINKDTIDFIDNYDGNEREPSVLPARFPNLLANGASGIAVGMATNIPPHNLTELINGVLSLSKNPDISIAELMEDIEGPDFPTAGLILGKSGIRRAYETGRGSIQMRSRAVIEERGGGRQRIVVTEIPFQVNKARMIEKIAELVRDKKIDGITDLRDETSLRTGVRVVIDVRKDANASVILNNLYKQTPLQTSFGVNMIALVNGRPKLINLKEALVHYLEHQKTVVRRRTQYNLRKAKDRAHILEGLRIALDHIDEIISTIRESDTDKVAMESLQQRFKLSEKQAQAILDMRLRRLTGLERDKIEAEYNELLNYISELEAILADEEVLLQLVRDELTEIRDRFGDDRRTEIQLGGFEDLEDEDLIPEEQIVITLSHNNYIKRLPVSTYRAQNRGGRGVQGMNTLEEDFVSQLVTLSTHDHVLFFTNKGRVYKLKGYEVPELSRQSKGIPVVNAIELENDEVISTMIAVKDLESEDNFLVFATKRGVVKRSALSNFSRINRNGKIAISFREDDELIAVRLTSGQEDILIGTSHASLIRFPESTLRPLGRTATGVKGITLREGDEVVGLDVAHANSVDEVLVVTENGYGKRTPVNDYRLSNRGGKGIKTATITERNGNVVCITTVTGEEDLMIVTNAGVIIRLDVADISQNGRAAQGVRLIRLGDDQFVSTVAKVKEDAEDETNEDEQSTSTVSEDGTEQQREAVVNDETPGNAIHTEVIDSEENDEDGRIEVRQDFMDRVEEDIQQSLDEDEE

In assay [1], `COc1cc(/C=N/Nc2nc(-c3ccc(Cl)cc3)cs2)ccc1Oc1ccnc2cc(Cl)ccc12` showed an MIC of 3.12 µM (≈ 1.63 µg/mL).

In turn, `NC(=O)c1cnccn1` [PYRAZINAMIDE] registered an MIC in assay [1] of 3.12 µM (≈ 0.384 µg/mL).

Regarding `COC(=O)c1ccc(CNC(=O)[C@H](Cc2ccc(O)cc2)NC(=O)c2cc(Br)c(Br)[nH]2)cc1`, the IC50 against DNA gyrase [2] came to 970 nM.

As for `COc1cc2c(cc1OCCCC(=O)Nc1cc(C(=O)Nc3ccc4occc4c3)n(C)c1)N=C[C@@H]1CCCN1C2=O`, the IC50 at DNA gyrase [3] is 2900 nM.

With `COC(=O)CNC(=O)c1ccc(NC(=O)c2cc(Cl)c(Cl)[nH]2)c(OCC(C)C)c1`, at DNA gyrase [2], the IC50 worked out at 2300 nM.

For `CCn1cc(C(=O)O)c(=O)c2ccc(C)nc21` [NALIDIXIC ACID], the IC50 in the assay with Staphylococcus aureus [4] and in the assay with Staphylococcus aureus [5] was 47 µg/mL (≈ 202 µM) in each case.

As to `COc1cc2c(cc1OCCCC(=O)Nc1cc(C(=O)Nc3ccc4sccc4c3)n(C)c1)N=C[C@@H]1CCCN1C2=O`, the IC50 on DNA gyrase [3] is 3890 nM.

Turning to `O=C1COc2ccc(CNC3CCN(CCn4c(=O)c5nocc5c5ncccc54)CC3)nc2N1`, inhibition on DNA gyrase [2] was half-maximal at 442 nM (IC50).

The molecule `CCNC(=O)Nc1nc2ccc(NC(=O)Cc3csc(NC(C)=O)n3)cc2s1` registered an IC50 against DNA gyrase [2] of 5600 nM.

In turn, `COc1ccc2c3conc3c(=O)n(CCN3CCC(NCc4nc5c(cc4F)OCC(=O)N5)CC3)c2c1` showed an IC50 against DNA gyrase [2] of 402 nM.

As for `O=C1COc2ccc(CNC3CCN(CCn4c(=O)c5nocc5c5ccc(F)cc54)CC3)nc2N1`, at DNA gyrase [2], the IC50 is 426 nM.

The molecule `O=C1COc2ccc(CNC3CCN(CCn4c(=O)c5ncoc5c5ccc(F)cc54)CC3)nc2N1` gave an IC50 against DNA gyrase [2] of 426 nM.

In turn, `COc1cc(C(=O)NCC(=O)O)ccc1NC(=O)c1cc(Cl)c(Cl)[nH]1` came in with an IC50 against DNA gyrase [2] of 120 nM.

The molecule `O=C(O)CNC(=O)Cc1csc(NC(=O)c2cc(Br)c(Br)[nH]2)n1` gave an IC50 against DNA gyrase [2] of 15900 nM.

`COc1cc(/C=N/Nc2nc(-c3ccc(Br)cc3)cs2)ccc1Oc1ccnc2cc(Cl)ccc12` gave an MIC in assay [1] of 3.12 µM (≈ 1.77 µg/mL).

For the molecule `O=C1COc2cc(F)c(CNC3CCN(CCn4c(=O)c5nocc5c5ccc(F)cc54)CC3)nc2N1`, the IC50 on DNA gyrase [2] was 411 nM.

`COc1ccc2c3conc3c(=O)n(CCN3CCC(NCc4ccc5c(n4)NC(=O)CO5)CC3)c2c1` had an IC50 at DNA gyrase [2] of 416 nM.

As to `COc1c(NC(=O)c2ccc(NC(=O)[C@@H](NC(=O)c3ccc(NC(=O)/C(C)=C/c4ccc(O)cc4)cc3)C(C)O)c(OC)c2O)ccc(C(=O)O)c1O` (some centres undefined), the values for the MIC with Bacillus subtilis and in the assay with Mycolicibacterium phlei were 0.5 µM (≈ 0.364 µg/mL) and 2 µM (≈ 1.46 µg/mL), respectively.

In the case of `CCNC(=O)Nc1nc2ccc(NC(=O)Cc3csc(NC(=O)OC(C)(C)C)n3)cc2s1`, inhibition on DNA gyrase [2] was half-maximal at 3900 nM (IC50).

Regarding `CCn1cc(C(=O)N[C@@H](CC2CCCCC2)C(=O)N[C@H](CCCNC(=N)N)C(=O)N[C@@H](CC2CCCCC2)C(=O)N[C@H](CCCNC(=N)N)C(=O)N[C@@H](CC2CCCCC2)C(=O)N[C@H](CCCNC(=N)N)C(=O)N[C@@H](CC2CCCCC2)C(N)=O)c(=O)c2ccc(C)nc21`, the IC50 with Staphylococcus aureus [4] amounted to 13 µg/mL (≈ 9.9 µM); on DNA gyrase [6] it was 25000 nM; with Staphylococcus aureus [5], 13 µg/mL (≈ 9.9 µM).

On to `O=C(O)CCC(=O)Nc1ccc(NC(=O)c2ccco2)cc1`, for which the IC50 at DNA gyrase [6] was found to be 12900 nM.

Molecule `O=C(O)C(=O)Nc1ccc(NC(=O)c2cc(Br)c(Br)[nH]2)cc1` registered an IC50 on DNA gyrase [2] of 180 nM.

`O=C(O)c1ccc(CNC(=O)[C@H](Cc2ccc(O)cc2)NC(=O)c2cc(Br)c(Br)[nH]2)cc1` showed an IC50 at DNA gyrase [2] of 619 nM.

As for `COc1cc(/C=N/Nc2nc(-c3ccc([N+](=O)[O-])cc3)cs2)ccc1Oc1ccnc2cc(Cl)ccc12`, in assay [1], the MIC is 3.12 µM (≈ 1.66 µg/mL).

Regarding `CCn1cc(C(=O)N[C@H](CCCNC(=N)N)C(=O)N[C@@H](CC2CCCCC2)C(=O)N[C@H](CCCNC(=N)N)C(=O)N[C@@H](CC2CCCCC2)C(=O)N[C@H](CCCNC(=N)N)C(=O)N[C@@H](CC2CCCCC2)C(N)=O)c(=O)c2ccc(C)nc21`, the IC50 with Staphylococcus aureus [4] was determined as 18 µg/mL (≈ 15.5 µM); on DNA gyrase [6], 25000 nM; in the assay with Staphylococcus aureus [5], 1 µg/mL (≈ 0.862 µM).

With `COc1c(NC(=O)c2ccc(NC(=O)[C@H](CC#N)NC(=O)c3ccc(NC(=O)/C(C)=C/c4ccc(O)cc4)cc3)c(OC)c2O)ccc(C(=O)O)c1O`, the MIC in the assay on Bacillus subtilis was found to be 0.062 µM (≈ 0.0449 µg/mL); in the assay on Mycolicibacterium phlei, 2 µM (≈ 1.45 µg/mL).

For the molecule `O=C(O)C(=O)Nc1nc2ccc(NC(=O)c3cc(Br)c(Br)[nH]3)cc2s1`, on DNA gyrase [2], half-maximal inhibition (IC50) required 58 nM.
